The results in this text go back to US7842695B2, “Substituted pyrazole compounds” (Merck Patent GmbH, priority 2003, dated 2010).

The test concerns the target 5-HT2A receptors (UniProt P14842). In words: in-vitro affinity to 5-HT2A receptors, [3H]ketanserine displacement (Example A1). The format is binding. From the text: The 5-HT2A receptors are exposed both to [^3H]ketanserine (a substance known for its affinity to the receptor) and also to the test compound. The decrease in the affinity of [^3H]ketanserine to the receptor is an indication of the affinity of the test substance to the 5-HT2A receptor.
Consider `CCCN1CCN(Cc2cnn(-c3ccc(-c4ccc(F)cc4)cc3)c2-c2ccoc2)CC1` [Example 657, 1-[1-(4′-Fluorobiphenyl-4-yl)-5-furan-3-yl-1H-pyrazol-4-ylmethyl]-4-propylpiperazine], for which the IC50 turned out to be 73 nM.
The value for `CN1CCN(Cc2cnn(-c3ccc(-c4ccc(F)cc4)cc3)c2-n2cccc2)CC1` [Example 658, 1-[1-(4′-Fluorobiphenyl-4-yl)-5-pyrrol-1-yl-1H-pyrazol-4-ylmethyl]-4-methylpiperazine] was 74 nM.
The value for `CCN(CC)Cc1cnn(-c2ccc(-c3ccc(F)cc3)cc2)c1-c1ccoc1` [Example 662, Diethyl-[1-(4′-fluorobiphenyl-4-yl)-5-furan-3-yl-1H-pyrazol-4-ylmethyl]amine] was 78 nM; that for `CN1CCN(Cc2cnn(-c3ccc(-c4ccc(S(C)(=O)=O)cc4)cc3)c2-c2ccccc2F)CC1` [Example 663, 1-[5-(2-Fluorophenyl)-1-(4′-methanesulfonylbiphenyl-4-yl)-1H-pyrazol-4-ylmethyl]-4-methylpiperazine] was 85 nM.
For `COCCN1CCN(Cc2cnn(-c3ccc(-c4ccc(F)cc4)cc3)c2-c2ccoc2)CC1` [Example 664, 1-[1-(4′-Fluorobiphenyl-4-yl)-5-furan-3-yl-1H-pyrazol-4-ylmethyl]-4-(2-methoxyethyl)piperazine], the IC50 came to 85 nM.
The value for `COc1cccc(-c2c(CN3CCC(O)C3)cnn2-c2ccc(-c3ccc(F)cc3)cc2)c1` (stereo not drawn) [Example 665, 1-[1-(4′-Fluorobiphenyl-4-yl)-5-(3-methoxyphenyl)-1H-pyrazol-4-ylmethyl]pyrrolidin-3-ol] was 91 nM; that for `OCCOCCNCc1cnn(-c2ccc(-c3ccc(F)cc3)cc2)c1-c1ccco1` [Example 666, 2-(2-{[1-(4′-Fluorobiphenyl-4-yl)-5-furan-2-yl-1H-pyrazol-4-ylmethyl]amino}ethoxy)ethanol] was 92 nM.
The value for `CC#Cc1ccc(-c2ccc(-n3ncc(CN4CCN(C)CC4)c3-c3ccccc3F)cc2)c(F)c1` [Example 667, 1-[5-(2-Fluorophenyl)-1-(2′-fluoro-4′-prop-1-ynylbiphenyl-4-yl)-1H-pyrazol-4-ylmethyl]-4-methylpiperazine] was 93 nM.
The value for `OCCCNCc1cnn(-c2ccc(-c3ccc(F)cc3)cc2)c1-c1ccco1` [Example 668, 3-{[1-(4′-Fluorobiphenyl-4-yl)-5-furan-2-yl-1H-pyrazol-4-ylmethyl]amino}propan-1-ol] was 94 nM.
`CN(CCC#N)Cc1cnn(-c2ccc(-c3ccc(F)cc3)cc2)c1-c1ccco1` [Example 669, 3-{[1-(4′-Fluorobiphenyl-4-yl)-5-furan-2-yl-1H-pyrazol-4-ylmethyl]methylamino}propionitrile] had a 50% inhibitory concentration (IC50) of 95 nM.
The value for `OC1CCN(Cc2cnn(-c3ccc(-c4ccc(F)cc4)cc3)c2-c2ccoc2)C1` (stereo not drawn) [Example 670, 1-[1-(4′-Fluorobiphenyl-4-yl)-5-furan-3-yl-1H-pyrazol-4-ylmethyl]pyrrolidin-3-ol] was 96 nM; that for `COc1ccc(-c2c(CN3CCN(C)CC3)cnn2-c2ccc(-c3ccc(F)cc3)cc2)cc1` [Example 671, 1-[1-(4′-Fluorobiphenyl-4-yl)-5-(4-methoxyphenyl)-1H-pyrazol-4-ylmethyl]-4-methylpiperazine] was 100 nM.
The value for `CCN1CCN(Cc2cnn(-c3ccc(-c4ccc(F)cc4)cc3)c2-c2c(C)noc2C)CC1` [Example 672, 1-[5-(3,5-Dimethylisoxazol-4-yl)-1-(4′-fluorobiphenyl-4-yl)-1H-pyrazol-4-ylmethyl]-4-ethylpiperazine] was 100 nM; that for `NC1CCN(Cc2cnn(-c3ccc(-c4cccc(F)c4)cc3)c2-c2ccco2)CC1` [Example 673, 1-[1-(3′-Fluorobiphenyl-4-yl)-5-furan-2-yl-1H-pyrazol-4-ylmethyl]piperidin-4-ylamine] was 120 nM; that for `CCN(CC)Cc1cnn(-c2ccc(-c3ccc(F)cc3)cn2)c1-c1ccco1` [Example 675, Diethyl-{1-[5-(4-fluorophenyl)pyridin-2-yl]-5-furan-2-yl-1H-pyrazol-4-ylmethyl}amine] was 130 nM.
The value for `CCN(CC)Cc1cnn(-c2ccc(-c3ccc(F)cc3)cc2)c1-c1cccc(OC)c1` [Example 676, Diethyl-[1-(4′-fluorobiphenyl-4-yl)-5-(3-methoxyphenyl)-1H-pyrazol-4-ylmethyl]amine] was 130 nM.
On to `CCCCNCc1cnn(-c2ccc(-c3ccc(F)cc3)cc2)c1-c1ccco1` [Example 677, Butyl-[1-(4′-fluorobiphenyl-4-yl)-5-furan-2-yl-1H-pyrazol-4-ylmethyl]amine], for which the half-maximal inhibitory concentration (IC50) stood at 130 nM.
The value for `O=C(O)Cc1cnn(-c2ccccc2F)c1-c1cccs1` [Example 678, 1-(2-Fluorophenyl)-5-(2-thienyl)-4-pyrazoleacetic acid] was 160 nM.
The value for `Fc1ccccc1-c1c(CN2CCN(Cc3ccccc3)CC2)cnn1-c1ccc(-c2ccccc2)cc1` [Example 679, 1-Benzyl-4-[1-biphenyl-4-yl-5-(2-fluorophenyl)-1H-pyrazol-4-ylmethyl]piperazine] was 170 nM.
The value for `OCC(O)CNCc1cnn(-c2ccc(-c3ccc(F)cc3)cc2)c1-c1ccco1` (stereo not drawn) [Example 680, 3-{[1-(4′-Fluorobiphenyl-4-yl)-5-furan-2-yl-1H-pyrazol-4-ylmethyl]amino}propane-1,2-diol] was 170 nM; that for `Fc1ccc(-c2ccc(-n3ncc(CNC4CN5CCC4CC5)c3-c3ccco3)cc2)cc1` (stereo not drawn) [Example 681, (1-Azabicyclo[2.2.2]oct-3-yl)-[1-(4′-fluorobiphenyl-4-yl)-5-furan-2-yl-1H-pyrazol-4-ylmethyl]amine] was 180 nM.
Compound `CCN(CC)Cc1cnn(-c2ccc(-c3ccc(F)cc3)cc2)c1-c1cccc(Cl)c1` [Example 682, [5-(3-Chlorophenyl)-1-(4′-fluorobiphenyl-4-yl)-1H-pyrazol-4-ylmethyl]diethylamine] had an IC50 of 190 nM.
The value for `Fc1ccc(-c2ccc(-n3ncc(CN4CCN(CCc5ccc(F)cc5F)CC4)c3-c3cccc(Cl)c3)cc2)cc1` [Example 683, 1-[5-(3-Chlorophenyl)-1-(4′-fluorobiphenyl-4-yl)-1H-pyrazol-4-ylmethyl]-4-[2-(2,4-difluorophenyl)ethyl]piperazine] was 190 nM.
The value for `CCCN1CCN(Cc2cnn(-c3ccc(-c4ccc(F)cc4)cc3)c2-c2cccc(OC)c2)CC1` [Example 684, 1-[1-(4′-Fluorobiphenyl-4-yl)-5-(3-methoxyphenyl)-1H-pyrazol-4-ylmethyl]-4-propylpiperazine] was 190 nM; that for `COCCN1CCN(Cc2cnn(-c3ccc(-c4ccc(F)cc4)cc3)c2-c2cccc(OC)c2)CC1` [Example 685, 1-[1-(4′-Fluorobiphenyl-4-yl)-5-(3-methoxyphenyl)-1H-pyrazol-4-ylmethyl]-4-(2-methoxyethyl)piperazine] was 190 nM; that for `Fc1ccc(-c2ccc(-n3ncc(CN4CCN(C5CCCC5)CC4)c3-c3cccc(Cl)c3)cc2)cc1` [Example 686, 1-[5-(3-Chlorophenyl)-1-(4′-fluorobiphenyl-4-yl)-1H-pyrazol-4-ylmethyl]-4-cyclopentylpiperazine] was 200 nM.
As for `Cc1nn(-c2ccccc2)c(C)c1CN1CCN(C(=O)[C@]2(C)CC[C@@H](C(=O)O)C2(C)C)CC1` [Example 687], the IC50 was 210 nM.
The value for `COc1ccc(-c2ccc(-n3ncc(CNCc4nccs4)c3-c3ccco3)cc2)cc1` [Example 688, [5-Furan-2-yl-1-(4′-methoxybiphenyl-4-yl)-1H-pyrazol-4-ylmethyl]thiazol-2-ylmethylamine] was 220 nM; that for `Cc1ccoc1-c1c(CN2CCN(C(=O)OC(C)(C)C)CC2)cnn1-c1ccc(-c2ccc(F)cc2)cc1` [Example 689, tert-Butyl 4-[1-(4′-fluorobiphenyl-4-yl)-5-(3-methyl-2-furanyl)-1H-pyrazol-4-ylmethyl]piperazine-1-carboxylate] was 220 nM.
On to `Cc1noc(C)c1-c1c(CN2CCC(O)C2)cnn1-c1ccc(-c2ccc(F)cc2)cc1` (stereo not drawn) [Example 690, 1-[5-(3,5-Dimethylisoxazol-4-yl)-1-(4′-fluorobiphenyl-4-yl)-1H-pyrazol-4-ylmethyl]pyrrolidin-3-ol], for which the IC50 is 240 nM.
The value for `Cc1noc(C)c1-c1c(CN2CCNCC2)cnn1-c1ccc(-c2ccc(F)cc2)cc1` [Example 691, 1-[5-(3,5-Dimethylisoxazol-4-yl)-1-(4′-fluorobiphenyl-4-yl)-1H-pyrazol-4-ylmethyl]piperazine] was 250 nM; that for `Fc1ccc(-c2ccc(-n3ncc(CN4CCC(N5CCCC5)CC4)c3-c3ccoc3)cc2)cc1` [Example 692, 1-[1-(4′-Fluorobiphenyl-4-yl)-5-furan-3-yl-1H-pyrazol-4-ylmethyl]-4-pyrrolidin-1-ylpiperidine] was 260 nM.
The value for `O=C1CN(Cc2cnn(-c3ccc(-c4ccc5c(c4)OCO5)cc3)c2-c2ccco2)CCN1` [Example 693, 4-[1-(4-Benzo-1,3-dioxol-5-ylphenyl)-5-furan-2-yl-1H-pyrazol-4-ylmethyl]piperazin-2-one] was 280 nM; that for `O=C1NCCCCC1NCc1cnn(-c2ccc(-c3ccc(F)cc3)cc2)c1-c1ccco1` (stereo not drawn) [Example 694, 3-{[1-(4′-Fluorobiphenyl-4-yl)-5-furan-2-yl-1H-pyrazol-4-ylmethyl]amino}azepan-2-one] was 290 nM.
The value for `COc1ccc(-c2ccc(-n3ncc(CNCc4cc5ccccc5n4C)c3-c3ccco3)cc2)cc1` [Example 695, [5-Furan-2-yl-1-(4′-methoxybiphenyl-4-yl)-1H-pyrazol-4-ylmethyl]-(1-methyl-1H-indol-2-ylmethyl)amine] was 300 nM; that for `Cc1noc(C)c1-c1c(CN2CCN(C)CC2)cnn1-c1ccc(-c2ccc(F)cc2)cc1` [Example 696, 1-[5-(3,5-Dimethylisoxazol-4-yl)-1-(4′-fluorobiphenyl-4-yl)-1H-pyrazol-4-ylmethyl]-4-methylpiperazine] was 320 nM.
